Test results published in patent US10647713B2 (Nimbus Lakshmi, Inc., priority 2016, dated 2020).

Molecular target: human TYK2 (JH2domain-pseudokinase) (Homo sapiens (Human), UniProt P29597)
Test: TYK2 JH2 Domain Binding Assay (KINOMEscan, DiscoveRx)
Conditions: 11-point dilution, duplicate
Outline: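 TYK2 JH2 (G556–D888)–NFkB DBD fusion, DNA-tagged, from HEK293 extracts (<0.1 nM) competed against immobilised biotinylated ligand for 1 h at room temperature, 0.9% DMSO. Bead-retained kinase quantified by qPCR; Kd from 11-point 3-fold series (top 30,000 nM, duplicate), Hill fit with slope −1.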

Chain of human TYK2 (JH2domain-pseudokinase) (P29597 556-888): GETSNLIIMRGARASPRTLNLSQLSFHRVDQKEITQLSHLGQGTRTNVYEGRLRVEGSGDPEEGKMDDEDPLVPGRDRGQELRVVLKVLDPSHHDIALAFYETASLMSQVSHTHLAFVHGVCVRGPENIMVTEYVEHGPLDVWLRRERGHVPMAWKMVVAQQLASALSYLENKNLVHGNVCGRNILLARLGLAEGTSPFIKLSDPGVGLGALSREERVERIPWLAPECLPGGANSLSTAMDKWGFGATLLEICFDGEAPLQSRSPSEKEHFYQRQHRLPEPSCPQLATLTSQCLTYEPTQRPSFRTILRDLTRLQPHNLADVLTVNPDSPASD

Structure (SMILES) | Kd [nM]
Cc1nc2c(Nc3ccc(-c4cnn(C)c4C)cc3S(C)(=O)=O)cc(Nc3cccc(C(F)(F)F)n3)nc2[nH]1 [I-585, N7-(4-(1,5-dimethyl-1H-pyrazol-4-yl)-2-(methylsulfonyl)phenyl)-2-methyl-N5-(6-(trifluoromethyl)pyridin-2-yl)-3H-imidazo[4,5-b]pyridine-5,7-diamine] | 0.1 to 0.5
Cc1nc2c(Nc3ccc([C@H]4CCCCO4)cc3S(C)(=O)=O)cc(Nc3cc4n(n3)CCOC4)nc2[nH]1 [I-587, (R)—N5-(6,7-dihydro-4H-pyrazolo[5,1-c][1,4]oxazin-2-yl)-2-methyl-N7-(2-(methylsulfonyl)-4-(tetrahydro-2H-pyran-2-yl)phenyl)-3H-imidazo[4,5-b]pyridine-5,7-diamine] | 0.1 to 0.5
CS(=O)(=O)c1cc(C2COCCO2)ccc1Nc1cc(NC(=O)C2CC2)nc2[nH]c(C(F)F)nc12 (centres unmarked) [I-588, N-(7-((4-(1,4-dioxan-2-yl)-2-(methylsulfonyl)phenyl)amino)-2-(difluoromethyl)-3H-imidazo[4,5-b]pyridin-5-yl)cyclopropanecarboxamide] | 0.1 to 0.5
COc1cc(-c2cc(C)n(C)n2)ccc1Nc1cc(NC(=O)C2CC2)nc2[nH]c(C(F)F)nc12 [I-589, N-(2-(difluoromethyl)-7-((4-(1,5-dimethyl-1H-pyrazol-3-yl)-2-methoxyphenyl)amino)-3H-imidazo[4,5-b]pyridin-5-yl)cyclopropanecarboxamide] | 1 to 10
COc1cc(-c2cc(C)n(C)n2)ccc1Nc1cc(NC(=O)C2CC2)nc2[nH]c(C)nc12 [I-590, N-(7-((4-(1,5-dimethyl-1H-pyrazol-3-yl)-2-methoxyphenyl)amino)-2-methyl-3H-imidazo[4,5-b]pyridin-5-yl)cyclopropanecarboxamide] | 1 to 10
Cc1nc2c(Nc3ccc([C@H]4CCC(C)(C)O4)cc3S(C)(=O)=O)cc(NC(=O)C3CC3)nc2[nH]1 [I-591, (R)—N-(7-((4-(5,5-dimethyltetrahydrofuran-2-yl)-2-(methylsulfonyl)phenyl)amino)-2-methyl-3H-imidazo[4,5-b]pyridineyl)cyclopropanecarboxamide] | 0.1 to 0.5
Cc1nc2c(Nc3ccc([C@@H]4CCC(C)(C)O4)cc3S(C)(=O)=O)cc(NC(=O)C3CC3)nc2[nH]1 [I-592, (S)—N-(7-((4-(5,5-dimethyltetrahydrofuran-2-yl)-2-(methylsulfonyl)phenyl)amino)-2-methyl-3H-imidazo[4,5-b]pyridin-5-yl)cyclopropanecarboxamide] | 0.5 to 1
CS(=O)(=O)c1cc([C@H]2CCC(F)(F)CO2)ccc1Nc1cc(NC(=O)C2CC2)nc2[nH]c(C(F)F)nc12 [I-593, (R)—N-(2-(difluoromethyl)-7-((4-(5,5-difluorotetrahydro-2H-pyran-2-yl)-2-(methylsulfonyl)phenyl)amino)-3H-imidazo[4,5-b]pyridin-5-yl)cyclopropanecarboxamide] | 1 to 10
CS(=O)(=O)c1cc([C@@H]2CCC(F)(F)CO2)ccc1Nc1cc(NC(=O)C2CC2)nc2[nH]c(C(F)F)nc12 [I-594, (S)—N-(2-(difluoromethyl)-7-((4-(5,5-difluorotetrahydro-2H-pyran-2-yl)-2-(methylsulfonyl)phenyl)amino)-3H-imidazo[4,5-b]pyridin-5-yl)cyclopropanecarboxamide] | 0.1 to 0.5
Cc1nc2c(Nc3ccc([C@H]4CCCO4)cc3S(C)(=O)=O)cc(Nc3ccc(C(C)C)c(C#N)n3)nc2[nH]1 [I-595, (R)-3-isopropyl-6-((2-methyl-7-((2-(methylsulfonyl)-4-(tetrahydrofuran-2-yl)phenyl)amino)-3H-imidazo[4,5-b]pyridin-5-yl)amino)picolinonitrile] | 0.1 to 0.5
Cc1nc2c(Nc3ccc([C@@H]4CCCO4)cc3S(C)(=O)=O)cc(Nc3ccc(C(C)C)c(C#N)n3)nc2[nH]1 [I-596, (S)-3-isopropyl-6-((2-methyl-7-((2-(methylsulfonyl)-4-(tetrahydrofuran-2-yl)phenyl)amino)-3H-imidazo[4,5-b]pyridin-5-yl)amino)picolinonitrile] | 0.5 to 1
Cc1nc2c(Nc3ccccc3S(C)(=O)=O)cc(Nc3cc4c(nn3)CCC4)nc2[nH]1 [I-597, N5-(6,7-dihydro-5H-cyclopenta[c]pyridazin-3-yl)-2-methyl-N7-(2-(methylsulfonyl)phenyl)-3H-imidazo[4,5-b]pyridine-5,7-diamine] | 0.1 to 0.5
COc1c(Nc2cc(Nc3cccc(C#N)n3)nc3[nH]c(C(F)F)nc23)cccc1-c1noc(C)n1 [I-598, 6-((2-(difluoromethyl)-7-((2-methoxy-3-(5-methyl-1,2,4-oxadiazol-3-yl)phenyl)amino)-3H-imidazo[4,5-b]pyridin-5-yl)amino)picolinonitrile] | 0.5 to 1
CS(=O)(=O)c1ccccc1Nc1cc(Nc2cccc(C(F)(F)F)n2)nc2[nH]c(C(F)F)nc12 [I-599] | 0.5 to 1
Cc1nc2c(Nc3ccccc3S(C)(=O)=O)cc(Nc3cccc(C(F)(F)F)n3)nc2[nH]1 [I-600, 2-methyl-N7-(2-(methylsulfonyl)phenyl)-N5-(6-(trifluoromethyl)pyridin-2-yl)-3H-imidazo[4,5-b]pyridine-5,7-diamine] | 0.1 to 0.5
Cc1nc2c(Nc3ccc(C4CCC(C)(C)CO4)cc3S(C)(=O)=O)cc(Nc3cnc(C)c(C)n3)nc2[nH]1 (centres unmarked) [I-601, N5-(5,6-dimethylpyrazin-2-yl)-N7-(4-(5,5-dimethyltetrahydro-2H-pyran-2-yl)-2-(methylsulfonyl)phenyl)-2-methyl-3H-imidazo[4,5-b]pyridine-5,7-diamine] | 0.5 to 1
CS(=O)(=O)c1ccccc1Nc1cc(Nc2cccc(C#N)n2)nc2[nH]c(C(F)F)nc12 [I-602, 6-((2-(difluoromethyl)-7-((2-(methylsulfonyl)phenyl)amino)-3H-imidazo[4,5-b]pyridin-5-yl)amino)picolinonitrile] | < 0.1
Cc1nc2c(Nc3ccccc3S(C)(=O)=O)cc(Nc3cccc(C#N)n3)nc2[nH]1 [I-603, 6-((2-methyl-7-((2-(methylsulfonyl)phenyl)amino)-3H-imidazo[4,5-b]pyridin-5-yl)amino)picolinonitrile] | 0.1 to 0.5
Cc1nc2c(Nc3ccc(C4COCCO4)cc3S(C)(=O)=O)cc(NC(=O)C3CC3)nc2[nH]1 (centres unmarked) [I-604, N-(7-((4-(1,4-dioxan-2-yl)-2-(methylsulfonyl)phenyl)amino)-2-methyl-3H-imidazo[4,5-b]pyridin-5-yl)cyclopropanecarboxamide] | 0.1 to 0.5
Cc1ncc(Nc2cc(Nc3ccc(C4CCC(C)(C)CO4)cc3S(C)(=O)=O)c3nc(C(F)F)[nH]c3n2)nc1C (centres unmarked) [I-605, 2-(difluoromethyl)-N5-(5,6-dimethylpyrazin-2-yl)-N7-(4-(5,5-dimethyltetrahydro-2H-pyran-2-yl)-2-(methylsulfonyl)phenyl)-3H-imidazo[4,5-b]pyridine-5,7-diamine] | 0.1 to 0.5
COc1c(Nc2cc(Nc3cccc(C(F)(F)F)n3)nc3[nH]c(C)nc23)cccc1-c1cnn(C)n1 [I-606, N7-(2-methoxy-3-(2-methyl-2H-1,2,3-triazol-4-yl)phenyl)-2-methyl-N5-(6-(trifluoromethyl)pyridin-2-yl)-3H-imidazo[4,5-b]pyridine-5,7-diamine] | 1 to 10
CCOc1ccc(Nc2cc(Nc3ccc(F)cc3S(C)(=O)=O)c3nc(C(F)F)[nH]c3n2)nc1C#N [I-607, 6-((2-(difluoromethyl)-7-((4-fluoro-2-(methylsulfonyl)phenyl)amino)-3H-imidazo[4,5-b]pyridin-5-yl)amino)-3-ethoxypicolinonitrile] | 0.1 to 0.5
CCOc1ccc(Nc2cc(Nc3ccc(F)cc3S(C)(=O)=O)c3nc(C)[nH]c3n2)nc1C#N [I-608, 3-ethoxy-6-((7-((4-fluoro-2-(methylsulfonyl)phenyl)amino)-2-methyl-3H-imidazo[4,5-b]pyridin-5-yl)amino)picolinonitrile] | 0.1 to 0.5
Cc1nc2c(Nc3ccc([C@H]4CCC(C)(C)CO4)cc3S(C)(=O)=O)cc(Nc3cnc(C)c(C)n3)nc2[nH]1 [I-609, (R)—N5-(5,6-dimethylpyrazin-2-yl)-N7-(4-(5,5-dimethyltetrahydro-2H-pyran-2-yl)-2-(methylsulfonyl)phenyl)-2-methyl-3H-imidazo[4,5-b]pyridine-5,7-diamine] | 0.1 to 0.5
Cc1nc2c(Nc3ccc([C@@H]4CCC(C)(C)CO4)cc3S(C)(=O)=O)cc(Nc3cnc(C)c(C)n3)nc2[nH]1 [I-610, (S)—N5-(5,6-dimethylpyrazin-2-yl)-N7-(4-(5,5-dimethyltetrahydro-2H-pyran-2-yl)-2-(methylsulfonyl)phenyl)-2-methyl-3H-imidazo[4,5-b]pyridine-5,7-diamine] | 1 to 10
Cc1nc2c(Nc3ccc([C@@H]4COCCO4)cc3S(C)(=O)=O)cc(NC(=O)C3CC3)nc2[nH]1 [I-611, (R)—N-(7-((4-(1,4-dioxan-2-yl)-2-(methylsulfonyl)phenyl)amino)-2-methyl-3H-imidazo[4,5-b]pyridin-5-yl)cyclopropanecarboxamide] | 0.1 to 0.5
Cc1nc2c(Nc3ccc([C@H]4COCCO4)cc3S(C)(=O)=O)cc(NC(=O)C3CC3)nc2[nH]1 [I-612, (S)—N-(7-((4-(1,4-dioxan-2-yl)-2-(methylsulfonyl)phenyl)amino)-2-methyl-3H-imidazo[4,5-b]pyridin-5-yl)cyclopropanecarboxamide] | 0.1 to 0.5
Cc1nc2c(Nc3ccc([C@H]4CCC(F)(F)CO4)cc3S(C)(=O)=O)cc(NC(=O)C3CC3)nc2[nH]1 [I-615, (R)—N-(7-((4-(5,5-difluorotetrahydro-2H-pyran-2-yl)-2-(methylsulfonyl)phenyl)amino)-2-methyl-3H-imidazo[4,5-b]pyridin-5-yl)cyclopropanecarboxamide] | 0.5 to 1
Cc1nc2c(Nc3ccc([C@@H]4CCC(F)(F)CO4)cc3S(C)(=O)=O)cc(NC(=O)C3CC3)nc2[nH]1 [I-616, (S)—N-(7-((4-(5,5-difluorotetrahydro-2H-pyran-2-yl)-2-(methylsulfonyl)phenyl)amino)-2-methyl-3H-imidazo[4,5-b]pyridin-5-yl)cyclopropanecarboxamide] | 0.1 to 0.5
